Results reported in ChEMBL document CHEMBL5543068, “Mitochondrial targeting derivatives of honokiol enhanced selective antitumor activity in NCI-H446 cells and decreased in vivo toxicity in Caenorhabditis elegans” (Eur J Med Chem, 2024).
Values belong to the compound of their own block, whether it stands above or below them. The source made the active and inactive calls. No cut-off for these calls is given here.

Columns and labels:
[1] = tested on: NCI-H446; experiment: Induction of apoptosis in human NCI-H446 cells assessed as viable cells at 0.25 uM incubated for 24 hrs by Annexin V-FITC/PI staining based flow cytometric analysis (reference value: 96.8 %); type: functional; settings: read-out: Activity
[2] = tested on: NCI-H446; experiment: Induction of apoptosis in human NCI-H446 cells assessed as necrotic cells at 0.25 uM incubated for 24 hrs by Annexin V-FITC/PI staining based flow cytometric analysis (reference value: 1.17 %); type: functional
[3] = Cytotoxicity against HBE (human bronchial epithelial) cells assessed as reduction in cell viability incubated for 48 hrs by MTT assay; type: toxicity, cell-based
[4] = tested on: NCI-H446; experiment: Induction of ROS production in human NCI-H446 cells assessed as increase in intracellular ROS level at 2 uM incubated for 24 hrs by DCFH-DA staining based flow cytometric analysis; type: functional, cell-based
[5] = tested on: NCI-H446; experiment: Induction of apoptosis in human NCI-H446 cells assessed as late apoptotic cells at 0.5 uM incubated for 24 hrs by Annexin V-FITC/PI staining based flow cytometric analysis (reference value: 1.71 %); type: functional
[6] = tested on: NCI-H446; experiment: Induction of apoptosis in human NCI-H446 cells assessed as early apoptotic cells at 2 uM incubated for 24 hrs by Annexin V-FITC/PI staining based flow cytometric analysis (reference value: 0.37 %); type: functional
[7] = tested on: NCI-H446; experiment: Induction of apoptosis in human NCI-H446 cells assessed as late apoptotic cells at 1 uM incubated for 24 hrs by Annexin V-FITC/PI staining based flow cytometric analysis (reference value: 1.71 %); type: functional
[8] = tested on: NCI-H446; experiment: Induction of apoptosis in human NCI-H446 cells assessed as early apoptotic cells at 0.25 uM incubated for 24 hrs by Annexin V-FITC/PI staining based flow cytometric analysis (reference value: 0.37 %); type: functional
[9] = tested on: NCI-H446; experiment: Induction of apoptosis in human NCI-H446 cells assessed as necrotic cells at 0.5 uM incubated for 24 hrs by Annexin V-FITC/PI staining based flow cytometric analysis (reference value: 1.17 %); type: functional
[10] = tested on: NCI-H446; experiment: Induction of apoptosis in human NCI-H446 cells assessed as necrotic cells at 1 uM incubated for 24 hrs by Annexin V-FITC/PI staining based flow cytometric analysis (reference value: 1.17 %); type: functional
[11] = tested on: NCI-H446; experiment: Induction of apoptosis in human NCI-H446 cells assessed as viable cells at 1 uM incubated for 24 hrs by Annexin V-FITC/PI staining based flow cytometric analysis (reference value: 96.8 %); type: functional; settings: read-out: Activity
[12] = tested on: Cell membrane; experiment: Induction of mitochondrial membrane potential loss in human NCI-H446 cells at 0.25 uM incubated for 24 hrs by JC-1 staining based flow cytometric analysis; type: cell membranes
[13] = Toxicity in Caenorhabditis elegans assessed as reduction in movement speed at 100 uM measured after 72 hrs by […] microscopic analysis
[14] = tested on: NCI-H446; experiment: Induction of apoptosis in human NCI-H446 cells assessed as viable cells at 0.5 uM incubated for 24 hrs by Annexin V-FITC/PI staining based flow cytometric analysis (reference value: 96.8 %); type: functional; settings: read-out: Activity
[15] = tested on: A549; experiment: Antiproliferative activity against human A549 cells assessed as reduction in cell viability incubated for 48 hrs by MTT assay; type: functional, cell-based; settings: A549, 48 h
[16] = tested on: NCI-H446; experiment: Induction of apoptosis in human NCI-H446 cells assessed as early apoptotic cells at 1 uM incubated for 24 hrs by Annexin V-FITC/PI staining based flow cytometric analysis (reference value: 0.37 %); type: functional
[17] = tested on: NCI-H446; experiment: Induction of apoptosis in human NCI-H446 cells assessed as viable cells at 2 uM incubated for 24 hrs by Annexin V-FITC/PI staining based flow cytometric analysis (reference value: 96.8 %); type: functional; settings: read-out: Activity
[18] = Cytotoxicity against human HL7702 cells assessed as reduction in cell viability incubated for 48 hrs by MTT assay; type: toxicity, cell-based; settings: HL7702 (L02) cells
[19] = tested on: HepG2; experiment: Antiproliferative activity against human HepG2 cells assessed as reduction in cell viability incubated for 48 hrs by MTT assay; type: functional, cell-based; settings: HepG2, 48 h
[20] = tested on: NCI-H446; experiment: Antiproliferative activity against human NCI-H446 cells assessed as reduction in cell viability incubated for 48 hrs by MTT assay; type: functional, cell-based; settings: for IC50: NCI-H446, 48 h
[21] = tested on: NCI-H446; experiment: Induction of apoptosis in human NCI-H446 cells assessed as late apoptotic cells at 0.25 uM incubated for 24 hrs by Annexin V-FITC/PI staining based flow cytometric analysis (reference value: 1.71 %); type: functional
[22] = Toxicity in Caenorhabditis elegans assessed as reduction in growth by measuring body length at 20 to 100 uM measured after 72 hrs by […] microscopic analysis; settings: dose 20-100 µM
[23] = tested on: NCI-H446; experiment: Induction of apoptosis in human NCI-H446 cells assessed as late apoptotic cells at 2 uM incubated for 24 hrs by Annexin V-FITC/PI staining based flow cytometric analysis (reference value: 1.71 %); type: functional
[24] = tested on: NCI-H446; experiment: Induction of apoptosis in human NCI-H446 cells assessed as early apoptotic cells at 0.5 uM incubated for 24 hrs by Annexin V-FITC/PI staining based flow cytometric analysis (reference value: 0.37 %); type: functional
[25] = tested on: NCI-H446; experiment: Induction of apoptosis in human NCI-H446 cells assessed as necrotic cells at 2 uM incubated for 24 hrs by Annexin V-FITC/PI staining based flow cytometric analysis (reference value: 1.17 %); type: functional
[26] = tested on: NCI-H446; experiment: Induction of apoptosis in human NCI-H446 cells assessed as decrease in caspase-9 level at 0.5 to 2 uM by Western blot analysis; type: functional, cell-based; settings: dose 0.5-2 µM
[27] = tested on: NCI-H446; experiment: Induction of apoptosis in human NCI-H446 cells assessed as decrease in caspase-3 level at 0.5 to 2 uM by Western blot analysis; type: functional, cell-based; settings: dose 0.5-2 µM
[28] = Drug localization in human NCI-H446 cell mitochondria at 2.5 uM incubated for 5 hrs by MitoTracker Red CMXRos dye based confocal microscopic analysis; type: ADME; settings: nci-h446, 5 h
[29] = tested on: NCI-H446; experiment: Induction of apoptosis in human NCI-H446 cells assessed as increase in cleaved caspase-3 level at 0.5 to 2 uM by Western blot analysis; type: functional, cell-based; settings: dose 0.5-2 µM
[30] = Toxicity in Caenorhabditis elegans assessed as reduction in growth by measuring body length at 50 to 100 uM measured after 72 hrs by […] microscopic analysis; settings: dose 50-100 µM
[31] = tested on: NCI-H446; experiment: Induction of apoptosis in human NCI-H446 cells assessed as change in cellular nuclei morphology at 1 uM incubated for 24 hrs by DAPI staining based fluorescence inverted microscopic analysis; type: functional, cell-based
[32] = Toxicity in Caenorhabditis elegans assessed as reduction in movement speed at 20 to 100 uM measured after 72 hrs by […] microscopic analysis; settings: dose 20-100 µM
[33] = tested on: NCI-H446; experiment: Cell cycle arrest in human NCI-H446 cells assessed as G0/G1 phase cells incubated for 24 hrs by PI staining based flow cytometric analysis (reference value: 52.37%); type: functional
[34] = tested on: NCI-H446; experiment: Antiproliferative activity against human NCI-H446 cells assessed as reduction in cell viability incubated for 24 to 72 hrs by MTT assay; type: functional, cell-based; settings: dose 0.5-8 µM, time 24-72 hrs
[35] = Selectivity index, ratio of IC50 for cytotoxicity against HBE (human bronchial epithelial) cells to IC50 for antiproliferative activity against human NCI-H446 cells; type: toxicity, cell-based; settings: HBE (human bronchial epithelial) cells versus NCI-H446 cells, read-out: Ratio IC50
[36] = Induction of apoptosis in HBE (human bronchial epithelial) cells assessed as change in nuclei morphology at 1 to 2 uM incubated for 24 hrs by DAPI staining based fluorescence inverted microscopic analysis; type: toxicity, cell-based; settings: dose 1-2 µM
[37] = tested on: NCI-H446; experiment: Cell cycle arrest in human NCI-H446 cells assessed as increase in subG1 phase cells at 0.25 to 2 uM incubated for 24 hrs by PI staining based flow cytometric analysis; type: functional; settings: dose 0.25-2 µM
[38] = tested on: CDDP-resistant A549 cell; experiment: Sensitization of cisplatin-induced antiproliferative activity against human CDDP-resistant A549 cells assessed as inhibition of cell growth at 0.25 uM incubated for 48 hrs by MTT assay; type: functional, cell-based
[39] = tested on: NCI-H446; experiment: Induction of apoptosis in human NCI-H446 cells assessed as increase in cleaved caspase-9 level at 0.5 to 2 uM by Western blot analysis; type: functional, cell-based; settings: dose 0.5-2 µM
[40] = tested on: NCI-H446; experiment: Induction of apoptosis in human NCI-H446 cells assessed as decrease in PARP level at 0.5 to 2 uM by Western blot analysis; type: functional, cell-based; settings: dose 0.5-2 µM
[41] = Drug uptake in human NCI-H446 cells assessed as green fluorescence at 2.5 uM incubated for 5 hrs by confocal microscopic analysis; type: ADME, cell-based; settings: nci-h446, 5 h
[42] = tested on: NCI-H446; experiment: Cell cycle arrest in human NCI-H446 cells assessed as decrease in S phase cells at 0.25 to 2 uM incubated for 24 hrs by PI staining based flow cytometric analysis; type: functional; settings: dose 0.25-2 µM
[43] = tested on: NCI-H446; experiment: Induction of ROS production in human NCI-H446 cells assessed as increase in intracellular ROS level incubated for 24 hrs by DCFH-DA staining based flow cytometric analysis; type: functional, cell-based; settings: dose 0.25-2 µM
[44] = tested on: NCI-H446; experiment: Synergistic antiproliferative activity against human NCI-H446 cells assessed as reduction in cell viability incubated for 48 hrs in presence of cisplatin by MTT assay; type: functional, cell-based; settings: dose 0.5-8 µM
[45] = tested on: CDDP-resistant A549 cell; experiment: Antiproliferative activity against human CDDP-resistant A549 cells assessed as reduction in cell viability at 0.5 to 16 uM incubated for 48 hrs by MTT assay; type: functional, cell-based; settings: dose 0.5-16 µM
[46] = tested on: Cell membrane; experiment: Induction of mitochondrial membrane potential loss in human NCI-H446 cells incubated for 24 hrs by JC-1 staining based flow cytometric analysis; type: cell membranes; settings: dose 0.25-2 µM
[47] = tested on: NCI-H446; experiment: Antiproliferative activity against human NCI-H446 cells assessed as reduction in cell viability at 0.5 to 8 uM by MTT assay; type: functional, cell-based; settings: dose 0.5-8 µM, time 24-72 hrs, TDE = time-dependent effect

Activity [12]: inactive
IC50 [15]: 48.1 µM
IC50 [19]: 41.4 µM
IC50 [20]: 44.5 µM
Structure (SMILES): C=CCc1ccc(O)c(-c2ccc(O)c(CC=C)c2)c1 [HONOKIOL]
viability at 0.25 µM [1]: 95.4%
Activity [2]: 2.17%
IC50 at 48 h [3]: 43.7 µM
Activity [4]: inactive
Activity [5]: 1.98%
Activity [6]: 2.61%
Activity [7]: 12.8%
Activity [8]: 0.38%
Activity [9]: 1.53%
Activity [10]: 12.8%
viability at 1 µM [11]: 73.3%
Activity [13]: Toxic
viability at 0.5 µM [14]: 96%
Activity [16]: 1.1%
viability at 2 µM [17]: 69.1%
IC50 at 48 h [18]: 47.9 µM
Activity [21]: 2.04%
Activity [22]: Toxic
Activity [23]: 13%
Activity [24]: 0.47%
Activity [25]: 15.3%

Drug uptake [28]: Active
IC50 [15]: 4.6 µM
Drug uptake [41]: Active
IC50 [19]: 2.48 µM
IC50 [20]: 2.87 µM
Activity [46]: Dose-Dependent Effect
Structure (SMILES): C=CCc1ccc(OCCC)c(-c2ccc(OCCC[n+]3ccc(/C=C/c4c[nH]c5ccccc45)cc3)c(CC=C)c2)c1.[Br-]
Activity [26]: Active
viability at 0.25 µM [1]: 2.58%
Activity [2]: 0.14%
Activity [27]: Active
IC50 at 48 h [3]: 23.1 µM
Activity [5]: 88.1%
Activity [6]: 2.19%
Activity [7]: 95.4%
Activity [8]: 39.9%
Activity [9]: 0.08%
Activity [29]: Active
Activity [10]: 0.13%
Activity [30]: Non-Toxic
viability at 1 µM [11]: 1.32%
Activity [31]: Active
Activity [32]: Non-Toxic
Activity [33]: 68.31%
Activity [34]: Dose-Dependent Effect
viability at 0.5 µM [14]: 1.75%
selectivity ratio [35]: ~10
Activity [36]: Non-Toxic
Activity [37]: Active
Activity [38]: Active
Activity [16]: 2.12%
viability at 2 µM [17]: 1.97%
Activity [39]: Active
Activity [40]: Active
Activity [42]: Active
IC50 at 48 h [18]: 2.62 µM
Activity [43]: Dose-Dependent Effect
Activity [44]: Dose-Dependent Effect
Activity [45]: inactive
Activity [20]: Dose-Dependent Effect
Activity [21]: 57.4%
Activity [23]: 95.4%
Activity [47]: Tde
Activity [24]: 10.1%
Activity [25]: 0.45%
